Data: US11987600B2, “Contraceptive use of triterpenoids” (The Regents of the University of California, priority 2017, dated 2024)

Key:
human sperm [1] = experiment: Sperm hyperactivation: curvilinear velocity (VCL) of human sperm; format: cell-based; conditions: for change (increase) of VCL / reduction of VCL values in comparison to VCL in the presence of P4: capacitated spermatozoa; for change (increase) of VCL: compound alone; for decrease of VCL compared to sperm treated with PregS alone: capacitated sperm; for reduction of VCL values in comparison to VCL in the presence of P4: stimulated with P4 + compound
Source text: (§1) Pristimerin and lupeol decrease sperm hyperactivation in the presence of P4. Hyperactivated sperm motility is characterized by a highly asymmetrical bending of the sperm tail due to a CatSper-mediated rise in flagellar calcium concentration (15). Curvilinear velocity (VCL) is the average velocity of the sperm head through the sperm trajectory, which increases during capacitation. A CatSper-mediated calcium rise promotes hyperactivation and makes the sperm trajectory less linear, which results in an increase of VCL. Capacitation increases CatSper activity, which results in a higher percentage of sperm with hyperactivated motility. Thus, capacitated spermatozoa tend to have higher VCL values than non-capacitated. Since both P4 and PregS activate CatSper, while pristimerin and lupeol inhibit it, we explored whether VCL values of human sperm are affected in the presence of plant triterpenoids or steroid hormones. As expected, neither of the compounds changed VCL values of non-capacitated sperm cells. […] Stimulating capacitated sperm with PregS in combination with pristimerin or lupeol decreased VCL by 18% and 9%, respectively, compared to sperm, which were treated with PregS alone. […] Since CatSper is not only required for hyperactivation but also for basal motility, we sought to determine whether pristimerin and lupeol also affect sperm motility.

CatSper [2] = experiment: Activity of steroids and modified steroids on CatSper activation (method not described); format: cell-based, human; conditions: for activity relative to progesterone: effect of position 11 versus position 3 modification; for effect on CatSper activation: competing with progesterone
CatSper [3] = experiment: Electrophysiology recordings of inward monovalent currents through CatSper (ICatSper) of human sperm; format: cell-based; conditions: for reduction of ICatSper stimulation compared to stimulation with P4 alone: co-application with P4, human spermatozoa; for reduction of ICatSper stimulation compared to stimulation with PregS alone: co-application with PregS
Source text: 2-AG hydrolysis by monoacyl lipases, such as ABHD2, is required for CatSper activation. The plant triterpenoid pristimerin was reported to inhibit the activity of related monoacylglycerol lipase (MAGL) (9). […] To test this hypothesis, human spermatozoa were stimulated with pristimerin, followed by exposure to either a mixture of pristimerin and P4, or to a mixture of pristimerin and PregS. In these experiments we analyzed inward monovalent currents through CatSper (ICatSper) of human sperm. Electrophysiology recordings were performed as described in (14). […] Compared to stimulation with P4 or PregS alone, the ICatSper stimulation was reduced by 63% (pristimerin and P4) and by 48% (pristimerin and PregS) (7).
Another pharmacologically active plant triterpenoid, which affects sperm functions when orally administered to rats, is lupeol (8). Lupeol is similar in structure to steroid hormones. […] However, administration of lupeol with P4 or PregS led to an even stronger inhibition of ICatSper than pristimerin. Compared to CatSper stimulation elicited by P4 or PregS alone, CatSper currents were reduced by 71% and 68%, respectively, in combination with P4 or PregS (7).

human sperm [4] = experiment: Sperm motility: number/percentage of motile spermatozoa; format: cell-based; conditions: for decrease of percentage of motile sperm: capacitated sperm
Source text: as §1

rats = conditions: orally administered to rats; cited from earlier work
[5] = PregS in combination with compound

## CC(=O)[C@H]1CC[C@H]2[C@@H]3CCC4=CC(=O)CC[C@]4(C)[C@H]3CC[C@]12C [P4, progesterone, reference compound]
Human sperm [1]
  change (increase) of VCL: 12%

## CC#C[C@]1(O)CC[C@H]2[C@@H]3CCC4=CC(=O)CCC4=C3[C@@H](c3ccc(N(C)C)cc3)C[C@@]21C [RU-486, mifepristione]
CatSper [2]
  activity relative to progesterone: inactive

## C[C@]12CCC(=O)C=C1CC[C@@H]1[C@@H]2[C@@H](O)C[C@@]2(C)[C@H]1CC[C@]2(O)C(=O)CO [cortisol]
CatSper [2]
  effect on CatSper activation: impair CatSper activation

## C=C(C)[C@@H]1CC[C@]2(C)CC[C@]3(C)[C@H](CC[C@@H]4[C@@]5(C)CC[C@H](O)C(C)(C)[C@@H]5CC[C@]43C)[C@@H]12 [lupeol]
CatSper [3]
  reduction of ICatSper stimulation compared to stimulation with P4 alone: 71%
CatSper [3]; human spermatozoa
  reduction of ICatSper stimulation compared to stimulation with PregS alone: 68%
CatSper [3]; compound alone, human spermatozoa
  effect on basal ICatSper: did not affect basal ICatSper
Human sperm [1]; [5]
  decrease of VCL compared to sperm treated with PregS alone: 9%
Human sperm [1]
  change (increase) of VCL: remained unchanged
  reduction of VCL values in comparison to VCL in the presence of P4: 48%
Human sperm [1]; non-capacitated sperm, PregS in combination with compound
  change of VCL values: remained unchanged
Human sperm [4]; capacitated and non-capacitated, compound alone
  change in number of motile spermatozoa: remained unchanged
Human sperm [4]; capacitated or non-capacitated sperm, co-stimulation with PregS
  reduction of motile sperm: did not result in a significant reduction
Human sperm [4]; P4 co-applied with compound
  decrease of percentage of motile sperm: 19%
Human sperm [4]; non-capacitated cells, P4 co-applied with compound
  change of percentage of motile sperm: did not change
rats
  antifertility properties: antifertility properties

## COC(=O)[C@]1(C)CC[C@]2(C)CC[C@]3(C)C4=CC=C5C(=CC(=O)C(O)=C5C)[C@]4(C)CC[C@@]3(C)[C@@H]2C1 [pristimerin]
CatSper [3]
  reduction of ICatSper stimulation compared to stimulation with P4 alone: 63%
CatSper [3]; human spermatozoa
  reduction of ICatSper stimulation compared to stimulation with PregS alone: 48%
Human sperm [1]; [5]
  decrease of VCL compared to sperm treated with PregS alone: 18%
Human sperm [1]
  reduction of VCL values in comparison to VCL in the presence of P4: 39%
Human sperm [4]; P4 co-applied with compound
  decrease of percentage of motile sperm: 19%

## C[C@]12CC[C@H]3[C@@H](CCC4=CC(=O)CC[C@@]43C)[C@@H]1CC[C@@H]2O [testosterone]
CatSper [2]
  effect on CatSper activation: impair CatSper activation

## estrogen
CatSper [2]
  effect on CatSper activation: impair CatSper activation

## pregnenolone sulfate [PregS, reference compound]
Human sperm [1]
  change (increase) of VCL: remained unchanged

## progesterone-3-BSA
CatSper [2]
  activity relative to progesterone: as active as progesterone

## progesterone-3-biotin
CatSper [2]
  activity relative to progesterone: as active as progesterone

## progesterone-11-BSA
CatSper [2]
  activity relative to progesterone: inactive

## progesterone-11-biotin
CatSper [2]
  activity relative to progesterone: inactive
